# Assay results: ChEMBL document CHEMBL1127517 (J Med Chem, 1994)
# Experiments:
# [1] = tested on: Rattus norvegicus; test: Distribution of radio activity in tissues of unfasted male rats was measured at 120 min of time in kidney after intravenous administration; assay type: ADME, organism-based; conditions: in vivo, 2 h
# [2] = tested on: Rattus norvegicus; test: Distribution of radio activity in tissues of unfasted male rats was measured as regional uptake at 60 min of time in striatum after intravenous administration; assay type: ADME, organism-based; conditions: in vivo, 1 h
# [3] = tested on: Rattus norvegicus; test: Distribution of radio activity in tissues of unfasted male rats was measured as regional uptake at 120 min of time in hippocampus after intravenous administration; assay type: ADME, organism-based; conditions: in vivo, 2 h
# [4] = tested on: Rattus norvegicus; test: Distribution of radio activity in tissues of unfasted male rats was measured at 60 min of time in skin after intravenous administration; assay type: ADME, organism-based; conditions: in vivo, 1 h
# [5] = tested on: Rattus norvegicus; test: Distribution of radio activity in tissues of unfasted male rats was measured as regional uptake at 30 min of time in cerebellum after intravenous administration; assay type: ADME, organism-based; conditions: in vivo, 0.5 h
# [6] = tested on: Rattus norvegicus; test: Distribution of radio activity in tissues of unfasted male rats was measured at 30 min of time in spleen after intravenous administration; assay type: ADME, organism-based; conditions: in vivo, 0.5 h
# [7] = tested on: Rattus norvegicus; test: Distribution of radio activity in tissues of unfasted male rats was measured at 2 min of time in liver after intravenous administration; assay type: ADME, organism-based; conditions: in vivo
# [8] = tested on: Rattus norvegicus; test: Distribution of radio activity in tissues of unfasted male rats was measured at 60 min of time in thyroid after intravenous administration; assay type: ADME, organism-based, Thyroid gland; conditions: in vivo, 1 h
# [9] = tested on: Rattus norvegicus; test: Distribution of radio activity in tissues of unfasted male rats was measured at 120 min of time in lung after intravenous administration.; assay type: ADME, organism-based; conditions: in vivo, 2 h
# [10] = tested on: Rattus norvegicus; test: Distribution of radio activity in tissues of unfasted male rats was measured at 120 min of time in brain after intravenous administration; assay type: ADME, organism-based; conditions: in vivo, 2 h
# [11] = tested on: Rattus norvegicus; test: Distribution of radio activity in tissues of unfasted male rats was measured at 120 min of time in muscle after intravenous administration; assay type: ADME, organism-based, Muscle tissue; conditions: in vivo, 2 h
# [12] = tested on: Rattus norvegicus; test: Distribution of radio activity in tissues of unfasted male rats was measured at 120 min of time in liver after intravenous administration; assay type: ADME, organism-based; conditions: in vivo, 2 h
# [13] = tested on: Rattus norvegicus; test: Distribution of radio activity in tissues of unfasted male rats was measured as regional uptake at 2 min of time in hippocampus after intravenous administration; assay type: ADME, organism-based; conditions: in vivo
# [14] = tested on: Rattus norvegicus; test: Distribution of radio activity in tissues of unfasted male rats was measured at 2 min of time in kidney after intravenous administration; assay type: ADME, organism-based; conditions: in vivo
# [15] = tested on: Rattus norvegicus; test: Distribution of radio activity in tissues of unfasted male rats was measured at 30 min of time in skin after intravenous administration; assay type: ADME, organism-based; conditions: in vivo, 0.5 h
# [16] = tested on: Rattus norvegicus; test: Distribution of radio activity in tissues of unfasted male rats was measured at 60 min of time in brain after intravenous administration; assay type: ADME, organism-based; conditions: in vivo, 1 h
# [17] = tested on: Rattus norvegicus; test: Distribution of radio activity in tissues of unfasted male rats was measured at 2 min of time in spleen after intravenous administration; assay type: ADME, organism-based; conditions: in vivo
# [18] = tested on: Rattus norvegicus; test: Distribution of radio activity in tissues of unfasted male rats was measured at 60 min of time in muscle after intravenous administration; assay type: ADME, organism-based, Muscle tissue; conditions: in vivo, 1 h
# [19] = tested on: Rattus norvegicus; test: Distribution of radio activity in tissues of unfasted male rats was measured at 30 min of time in muscle after intravenous administration; assay type: ADME, organism-based, Muscle tissue; conditions: in vivo, 0.5 h
# [20] = tested on: Rattus norvegicus; test: Distribution of radio activity in tissues of unfasted male rats was measured at 60 min of time in spleen after intravenous administration; assay type: ADME, organism-based; conditions: in vivo, 1 h
# [21] = tested on: Rattus norvegicus; test: Distribution of radio activity in tissues of unfasted male rats was measured at 120 min of time in heart after intravenous administration; assay type: ADME, organism-based; conditions: in vivo, 2 h
# [22] = tested on: Rattus norvegicus; test: Distribution of radio activity in tissues of unfasted male rats was measured as regional uptake at 120 min of time in striatum after intravenous administration; assay type: ADME, organism-based; conditions: in vivo, 2 h
# [23] = tested on: Rattus norvegicus; test: Distribution of radio activity in tissues of unfasted male rats was measured at 30 min of time in blood after intravenous administration; assay type: ADME, organism-based; conditions: in vivo, 0.5 h
# [24] = molecular target: Sodium-dependent dopamine transporter (Rattus norvegicus, UniProt P23977); test: Inhibitory constant towards reuptake of [125I]-12 from dopamine transporter in rat striatal membranes; assay type: cell membranes, Membrane
# Sequence of Sodium-dependent dopamine transporter (P23977 whole entry): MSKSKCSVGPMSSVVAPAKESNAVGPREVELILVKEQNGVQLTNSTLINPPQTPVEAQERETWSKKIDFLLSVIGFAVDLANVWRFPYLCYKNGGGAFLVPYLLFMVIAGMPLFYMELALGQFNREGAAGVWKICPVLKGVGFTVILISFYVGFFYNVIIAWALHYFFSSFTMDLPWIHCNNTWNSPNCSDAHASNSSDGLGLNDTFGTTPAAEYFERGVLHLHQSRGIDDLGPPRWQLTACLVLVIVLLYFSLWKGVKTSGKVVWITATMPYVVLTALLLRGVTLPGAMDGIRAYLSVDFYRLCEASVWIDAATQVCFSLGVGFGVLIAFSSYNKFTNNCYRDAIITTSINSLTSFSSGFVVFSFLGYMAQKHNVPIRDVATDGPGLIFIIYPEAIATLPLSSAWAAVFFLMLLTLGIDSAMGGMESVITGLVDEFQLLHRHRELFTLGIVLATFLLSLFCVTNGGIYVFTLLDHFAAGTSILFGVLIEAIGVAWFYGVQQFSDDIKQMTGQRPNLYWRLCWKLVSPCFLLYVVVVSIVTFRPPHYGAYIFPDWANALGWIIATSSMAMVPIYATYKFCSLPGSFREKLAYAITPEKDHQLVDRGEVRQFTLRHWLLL
# [25] = tested on: Rattus norvegicus; test: Distribution of radio activity in tissues of unfasted male rats was measured alungblood after intravenous administration; assay type: ADME, organism-based, Lung; conditions: in vivo
# [26] = tested on: Rattus norvegicus; test: Distribution of radio activity in tissues of unfasted male rats was measured as regional uptake at 2 min of time in cortex after intravenous administration; assay type: ADME, organism-based; conditions: in vivo
# [27] = tested on: Rattus norvegicus; test: Distribution of radio activity in tissues of unfasted male rats was measured as regional uptake at 2 min of time in cerebellum after intravenous administration; assay type: ADME, organism-based; conditions: in vivo
# [28] = tested on: Rattus norvegicus; test: Distribution of radio activity in tissues of unfasted male rats was measured as regional uptake at 60 min of time in cortex after intravenous administration; assay type: ADME, organism-based; conditions: in vivo, 1 h
# [29] = tested on: Rattus norvegicus; test: Distribution of radio activity in tissues of unfasted male rats was measured at 2 min of time in blood after intravenous administration; assay type: ADME, organism-based; conditions: in vivo
# [30] = tested on: Rattus norvegicus; test: Distribution of radio activity in tissues of unfasted male rats was measured as regional uptake at 30 min of time in striatum after intravenous administration; assay type: ADME, organism-based; conditions: in vivo, 0.5 h
# [31] = tested on: Rattus norvegicus; test: Distribution of radio activity in tissues of unfasted male rats was measured at 60 min of time in blood after intravenous administration; assay type: ADME, organism-based; conditions: in vivo, 1 h
structure (smiles),measurement,setting,value
COC(=O)C1C(c2ccc(Cl)cc2)CC2CCC1N2C/C=C\I (stereo unspecified),Injected dose/organ,[1],0.46%
same,Dose/g,[2],0.11%
same,Dose/g,[3],0.03%
same,Injected dose/organ,[4],24.81%
same,Dose/g,[5],0.19%
same,Injected dose/organ,[6],0.19%
same,Injected dose/organ,[7],12.13%
same,Injected dose/organ,[8],0.94%
same,Injected dose/organ,[9],0.4%
same,Injected dose/organ,[10],0.04%
same,Injected dose/organ,[11],9.22%
same,Injected dose/organ,[12],1.28%
same,Dose/g,[13],0.69%
same,Injected dose/organ,[14],2.65%
same,Injected dose/organ,[15],26.73%
same,Injected dose/organ,[16],0.07%
same,Injected dose/organ,[17],0.4%
same,Injected dose/organ,[18],12.22%
same,Injected dose/organ,[19],17.43%
same,Injected dose/organ,[20],0.11%
same,Injected dose/organ,[21],0.11%
same,Dose/g,[22],0.05%
same,Injected dose/organ,[23],8%
same,Ki,[24],1.27 nM
same,Injected dose/organ,[25],1.23%
same,Dose/g,[26],0.91%
same,Dose/g,[27],0.82%
same,Dose/g,[28],0.04%
same,Injected dose/organ,[29],5.01%
same,Dose/g,[30],0.33%
same,Injected dose/organ,[31],5.77%
